Source: patent US11844767B2, “Composition and methods for stimulating clearance of amyloid-beta protein” (Rush University Medical Center, priority 2016, dated 2023)

Assays:
TFEB = conditions: alone and in conjunction with all-trans-retinoic acid; cited from earlier work
LDLR = experiment: Quantitative RT-PCR of LDLR expression in astrocytes; type: cell-based, mouse
Description: The mRNA quantification was performed using the ABI-Prism7700 sequence detection system using SYBR Select master mix. The mRNA expression of the targeted genes was normalized to the level of Gapdh mRNA and data was processed by the ABI Sequence Detection System 1.6 software.

For `Cc1ccc(C)c(OCCCC(C)(C)C(=O)O)c1` [GFB, gemfibrozil], the “TFEB in brain cells” value (TFEB) is given as “capable of enhancing TFEB”, the “expression of LDLR” value (LDLR; PPARα(−/−) cells) is given as “not” and the “expression of LDLR” value (LDLR; WT astrocytes) is given as “increased”.
